# According to publication PMC5097887 (European journal of medicinal chemistry, 2016):
# Key:
# rat brain TSPO = rat brain TSPO (Rattus norvegicus, UniProt P16257); format: binding; conditions: for binding affinity for TSPO (in words): locked amide rotamers of ligand 22; for LipE: pKi minus clogD
# [1] = computed value; Table 1 footnote b; cited from earlier work
# [2] = format: physicochemical; conditions: n-octanol/sodium phosphate buffer, pH 7.4
SMILES,binding affinity for TSPO (in words) (rat brain TSPO),Ki (rat brain TSPO) [nM],LipE (rat brain TSPO),logD [2],cLogD [1]
"O=[N+]([O-])c1ccccc1NCc1ccccn1 [Ligand 35, 2-Nitro-N-(pyridin-2-ylmethyl)aniline]",lacked any appreciable binding affinity,–,–,–,–
"CC(C)N1CCC(Oc2cc(-c3ccccn3)nc3ccccc23)C1=O (centres unmarked) [Ligand 34, 1-Isopropyl-3-[2-(pyridin-2-yl)quinolin-4-yloxy]pyrrolidin-2-one]",lacked any appreciable binding affinity,> 1000,<3.36,–,–
"COc1cc(OC(C)C(=O)N(C)c2ccccc2)c2cccnc2n1 (centres unmarked) [Ligand 27, 2-(2-Methoxy-1,8-naphthyridin-4-yloxy)-N-methyl-N-phenylpropanamide]",–,7.8 ± 0.6,6.09 ± 0.04,–,–
"CC(On1c(-c2ccccn2)nc2ccccc21)C(=O)N(C)C(C)C (centres unmarked) [Ligand 36, N-Isopropyl-N-methyl-2-(2-(pyridin-2-yl)-1H-benzo[d]imidazol-1-yloxy)propanamide]",–,> 1000,<2.47,–,–
"CN1C(=O)C(Oc2cc(-c3ccccn3)nc3ccccc23)CC1(C)C (centres unmarked) [Ligand 33, 1,5,5-Trimethyl-3-[2-(pyridin-2-yl)quinolin-4-yloxy]pyrrolidin-2-one]",–,> 1000,<3.93,–,–
"CCC(C)N(C)C(=O)c1cc2ccccc2c(-c2ccccc2Cl)n1 (centres unmarked) [Ligand 1, PK11195]",–,–,–,–,3.97

# Second part, led by results:
binding affinity for TSPO (in words) (rat brain TSPO),Ki (rat brain TSPO) [nM],LipE (rat brain TSPO),logD [2],SMILES,cLogD [1]
–,0.09 ± 0.01,5.80 ± 0.06,–,"CC(Oc1cc(-c2ccccn2)nc2ccccc12)C(=O)N(C)c1ccc(F)cc1 (centres unmarked) [Ligand 23, N-(4-Fluorophenyl)-N-methyl-2-[2-(pyridin-2-yl)quinolin-4-yloxy]propanamide]",–
–,0.22 ± 0.03,6.13 ± 0.07,–,"CC(Oc1cc(-n2cccc2)nc2ccccc12)C(=O)N(C)c1ccccc1 (centres unmarked) [Ligand 29, 2-[2-(1H-Pyrrol-1-yl)quinolin-4-yloxy]-N-methyl-N-phenylpropanamide]",–
–,0.76 ± 0.09,6.58 ± 0.05,–,"CC(Oc1cc(-c2ccccn2)nc2ccccc12)C(=O)N(C)C(C)C (centres unmarked) [Ligand 22, N-Isopropyl-N-methyl-2-[2-(pyridin-2-yl)quinolin-4-yloxy]propanamide]",–
–,0.53 ± 0.08,6.6 ± 0.1,2.48,"CC(Oc1cc(-c2ncccn2)nc2ccccc12)C(=O)N(C)c1ccccc1 (centres unmarked) [Ligand 21, N-Methyl-N-phenyl-2-[2-(pyrimidin-2-yl)quinolin-4-yl]oxypropanamide]",–
–,0.5 ± 0.1,6.5 ± 0.1,2.48,"CC(Oc1cc(-c2ccccn2)nc2ncccc12)C(=O)N(C)c1ccccc1 (centres unmarked) [Ligand 20, N-Methyl-N-phenyl-2-[2-(pyridin-2-yl)-1,8-naphthyridin-4-yloxy]propanamide]",–
